Laboratory results as given in patent US20250160350A1, “BIOACTIVE MOLECULES IN YOGURT” (Phytoquest Limited, priority 2022, published 2025).
Where a name gives a salt, the structure may show the parent alone. Read-outs that look alike come from different tables or passages of the source.

Assays:
[1] = molecular target: T1, human recombinant β-glucocerebrosidase (Cerezyme) (Homo sapiens, UniProt P04062, R534H); assay: β-glucocerebrosidase assay (Cerezyme/imiglucerase, PNP β-glucopyranoside, pH 5.9); format: biochemical; settings: for inhibition at 5000 µg/mL / % inhibition Cerezyme (β-glucocerebrosidase): Conc 5 mg/ml; for effect on β-glucocerebrosidase activity, in words: in vitro; for % inhibition glucocerebrosidase (GC) Genzyme: 0.8 mM; for inhibition at 10000 µg/mL: Conc 10 mg/ml
T1 construct: purchased Genzyme, Europe
T1 sequence (P04062 40-536 R534H): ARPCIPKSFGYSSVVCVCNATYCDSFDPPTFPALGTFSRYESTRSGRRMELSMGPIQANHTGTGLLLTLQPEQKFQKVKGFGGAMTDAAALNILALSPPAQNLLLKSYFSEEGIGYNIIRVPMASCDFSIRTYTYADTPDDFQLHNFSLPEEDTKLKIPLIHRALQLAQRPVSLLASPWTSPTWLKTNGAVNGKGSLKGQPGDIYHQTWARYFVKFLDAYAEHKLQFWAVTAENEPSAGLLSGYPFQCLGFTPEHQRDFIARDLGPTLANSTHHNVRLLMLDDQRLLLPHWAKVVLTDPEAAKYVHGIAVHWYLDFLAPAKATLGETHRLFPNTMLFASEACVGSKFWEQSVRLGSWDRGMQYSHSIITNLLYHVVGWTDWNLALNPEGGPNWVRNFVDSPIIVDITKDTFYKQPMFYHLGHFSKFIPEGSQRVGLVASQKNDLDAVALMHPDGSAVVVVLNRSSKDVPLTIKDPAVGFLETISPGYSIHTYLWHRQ
Protocol: An exemplary assay is-uses human recombinant imiglucerase (obtained from Genzyme, Europe) and is conducted at 27° C. in 0.1 M citric acid/0.2 M disodium hydrogen phosphate buffer at pH 5.9. The incubation mixture consists of 10 μL of enzyme solution, 10 μL of aqueous solution of test material (e.g., yogurt, yogurt extract or isolated cyclic guanidine compound) at the required concentration and 50 μL of 5 mM para-nitrophenyl (PNP) B glucopyranoside (Sigma-Aldrich) made up in buffer at pH 5.9. The reactions are stopped by addition of 70 μL 0.4 M glycine (pH 10.4) during the exponential phase of the reaction, which is previously determined using uninhibited assays in which water replaces inhibitor. Final absorbances were read at 405 nm using a Versamax microplate reader (Molecular Devices). Assays are carried out in triplicate, and the values given are means of the three replicates per assay. A negative value indicates enzyme activation.
Glycosidase assays. Most enzymes and para-nitrophenyl substrates were purchased from Sigma with the exception of human recombinant β-glucocerebrosidase (Cerezyme) obtained from Genzyme, Europe. Pure iminosugars which inhibit β-glucosidases (DMDP and calystegine B2) were used as controls. Yogurt samples were tested at 1 mg/ml. Enzymes were assayed at 27° C. in 0.1 M citric acid/0.2 M disodium hydrogen phosphate buffers at the optimum pH for the enzyme (pH 5.9 for Cerezyme). The incubation mixture consisted of 10 μL enzyme solution, 10 μL of 1 mg/mL aqueous inhibitor solution and 50 μL of the appropriate 5 mM para-nitrophenyl substrate made up in buffer at the optimum pH for the enzyme. Cerezyme was assayed against para-nitrophenyl (PNP) β-glucopyranoside. […] Final absorbances were read at 405 nm using a Versamax microplate reader (Molecular Devices). Assays were performed in triplicate and the mean percentage inhibitions used. A negative value indicates enzyme activation.
Glycosidase Assays. β-glucocerebrosidase enzyme (Human recombinant imiglucerase, obtained from Genzyme, Europe) were carried at 27° C. in 0.1 M citric acid/0.2 M disodium hydrogen phosphate buffer at pH 5.9. The incubation mixture consisted of 10 μL of enzyme solution, 10 μL of aqueous solution of extract or compound at the required concentration and 50 μL of 5 mM para-nitrophenyl (PNP) β-glucopyranoside (Sigma-Aldrich) made up in buffer at pH 5.9. […] Final absorbances were read at 405 nm using a Versamax microplate reader (Molecular Devices). Assays were carried out in triplicate and the values given are means. Results are shown as % inhibition where a negative value indicates enzyme activation.
β-glucocerebrosidase enzyme (Human recombinant imiglucerase, obtained from Genzyme, Europe) were carried at 27° C. in 0.1 M citric acid/0.2 M disodium hydrogen phosphate buffer at pH 5.9. […] Final absorbances were read at 405 nm using a Versamax microplate reader (Molecular Devices). Assays were carried out in triplicate, and the values given are means of the three replicates per assay. A negative value indicates enzyme activation.

GCase [2] = settings: PD patients with and without GBA1 mutation; cited from earlier work
GCase [3] = settings: literature (Ambrosi et al. 2015); cited from earlier work
[4] = tested on: α-D-glucosidase rat intestine; assay: Glycosidase assay, α-D-glucosidase rat intestine; format: biochemical; settings: 0.8 mM; negative value = activation
Protocol: (§1) Glycosidase assays. Most enzymes and para-nitrophenyl substrates were purchased from Sigma with the exception of human recombinant β-glucocerebrosidase (Cerezyme) obtained from Genzyme, Europe. Pure iminosugars which inhibit β-glucosidases (DMDP and calystegine B2) were used as controls. Yogurt samples were tested at 1 mg/ml. Enzymes were assayed at 27° C. in 0.1 M citric acid/0.2 M disodium hydrogen phosphate buffers at the optimum pH for the enzyme (pH 5.9 for Cerezyme). The incubation mixture consisted of 10 μL enzyme solution, 10 μL of 1 mg/mL aqueous inhibitor solution and 50 μL of the appropriate 5 mM para-nitrophenyl substrate made up in buffer at the optimum pH for the enzyme. Cerezyme was assayed against para-nitrophenyl (PNP) β-glucopyranoside. The reactions were stopped by addition of 70 μL 0.4 M glycine (pH 10.4) during the exponential phase of the reaction, which had been determined at the beginning using uninhibited assays in which water replaced inhibitor. Final absorbances were read at 405 nm using a Versamax microplate reader (Molecular Devices). Assays were performed in triplicate and the mean percentage inhibitions used. A negative value indicates enzyme activation.

[5] = tested on: β-D-galactosidase bovine liver; assay: Glycosidase assay, β-D-galactosidase bovine liver; format: biochemical; settings: 0.8 mM; negative value = activation
Protocol: as §1

[6] = molecular target: T2, α-D-galactosidase Green coffee (Coffea arabica, UniProt Q42656); assay: Glycosidase assay, α-D-galactosidase Green coffee; format: biochemical; settings: 0.8 mM; negative value = activation
T2 construct: purchased Sigma
Protocol: as §1

[7] = tested on: N-acetyl-β-D gluc Bovine kidney; assay: Glycosidase assay, N-acetyl-β-D gluc Bovine kidney; format: biochemical; settings: negative value = activation; for % inhibition N-acetyl-β-D gluc Bovine kidney: 0.8 mM
Protocol: as §1

α-D-glucosidase Yeast = assay: Glycosidase assay, α-D-glucosidase Yeast; format: biochemical; settings: negative value = activation
Protocol: as §1

β-D-glucosidase almond = assay: Glycosidase assay, β-D-glucosidase almond; format: biochemical; settings: negative value = activation
Protocol: as §1

α-D-glucosidase Bacillus = assay: Glycosidase assay, α-D-glucosidase Bacillus; format: biochemical; settings: 0.8 mM; negative value = activation
Protocol: as §1

[8] = molecular target: T3, α-D-mannosidase Jack bean (Canavalia ensiformis, UniProt C0HJB3); assay: Glycosidase assay, α-D-mannosidase Jack bean; format: biochemical; settings: 0.8 mM; negative value = activation
T3 construct: purchased Sigma
T3 sequence (C0HJB3 1-981): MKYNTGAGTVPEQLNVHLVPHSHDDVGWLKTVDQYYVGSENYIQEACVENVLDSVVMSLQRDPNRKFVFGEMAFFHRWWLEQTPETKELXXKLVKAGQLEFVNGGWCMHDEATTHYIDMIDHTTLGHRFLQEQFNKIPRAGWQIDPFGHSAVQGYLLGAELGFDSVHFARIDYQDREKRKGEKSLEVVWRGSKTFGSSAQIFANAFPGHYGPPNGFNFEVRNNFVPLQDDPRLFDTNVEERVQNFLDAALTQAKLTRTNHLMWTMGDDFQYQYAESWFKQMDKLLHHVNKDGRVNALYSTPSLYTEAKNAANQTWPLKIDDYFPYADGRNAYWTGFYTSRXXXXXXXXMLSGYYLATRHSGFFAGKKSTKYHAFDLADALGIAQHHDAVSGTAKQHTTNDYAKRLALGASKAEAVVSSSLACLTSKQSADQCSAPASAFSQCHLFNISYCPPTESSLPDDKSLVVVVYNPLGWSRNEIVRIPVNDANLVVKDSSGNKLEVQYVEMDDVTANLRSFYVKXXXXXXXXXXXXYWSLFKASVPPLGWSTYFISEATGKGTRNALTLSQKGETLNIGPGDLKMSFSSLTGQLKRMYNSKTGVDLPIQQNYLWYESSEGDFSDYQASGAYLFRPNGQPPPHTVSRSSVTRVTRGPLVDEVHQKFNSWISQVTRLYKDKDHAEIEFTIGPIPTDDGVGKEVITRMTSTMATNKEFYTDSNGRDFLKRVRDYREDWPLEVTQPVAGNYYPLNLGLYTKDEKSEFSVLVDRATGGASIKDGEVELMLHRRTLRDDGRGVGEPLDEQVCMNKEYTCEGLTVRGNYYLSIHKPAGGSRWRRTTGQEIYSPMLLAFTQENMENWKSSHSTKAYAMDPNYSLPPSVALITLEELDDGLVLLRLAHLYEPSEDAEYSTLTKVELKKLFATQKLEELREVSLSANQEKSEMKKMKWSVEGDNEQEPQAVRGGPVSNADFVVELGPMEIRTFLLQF
Protocol: as §1

[9] = tested on: N-acetyl-β-D-gluc Jack bean; assay: Glycosidase assay, N-acetyl-β-D-gluc Jack bean; format: biochemical; settings: 0.8 mM; negative value = activation
Protocol: as §1

β-D-mannosidase C. fimi = assay: Glycosidase assay, β-D-mannosidase C. fimi; format: biochemical; settings: 0.8 mM; negative value = activation
Protocol: as §1

GCase [10] = settings: in vitro and in mice, tissue-specific (Sun et al. 2012); cited from earlier work
[11] = pH 5.9, negative value = activation

T2 sequence (Q42656 16-378): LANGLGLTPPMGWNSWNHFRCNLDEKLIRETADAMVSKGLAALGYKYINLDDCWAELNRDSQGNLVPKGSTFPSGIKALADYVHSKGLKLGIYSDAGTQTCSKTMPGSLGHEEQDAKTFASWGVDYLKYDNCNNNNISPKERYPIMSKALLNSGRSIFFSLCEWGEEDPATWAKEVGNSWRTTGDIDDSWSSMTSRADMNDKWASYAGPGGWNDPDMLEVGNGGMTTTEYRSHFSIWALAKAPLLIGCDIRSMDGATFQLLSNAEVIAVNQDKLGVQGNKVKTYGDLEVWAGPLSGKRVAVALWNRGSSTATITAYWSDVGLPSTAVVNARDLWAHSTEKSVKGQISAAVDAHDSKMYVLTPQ

SMILES: O=C(O)/C=C/c1ccc(O)c(O)c1 [caffeic acid]
- inhibition at 5000 µg/mL [1, 11]: -1.8%

SMILES: O=C(O)c1cccnc1 [nicotinic acid]
- inhibition at 5000 µg/mL [1, 11]: -12.7%

SMILES: Nc1c(Br)cc(Br)cc1CN[C@H]1CC[C@H](O)CC1 [Ambroxol hydrochloride]
- GCase activity in patients (GCase [2]): increased the GCase activity
- GCase activity (GCase [3]): enhance GCase activity
- α-syn clearance (GCase [3]): increase α-syn clearance

SMILES: O=C(/C=C/c1ccc(O)c(O)c1)O[C@@H]1C[C@](O)(C(=O)O)C[C@@H](O)[C@H]1O [chlorogenic acid]
- inhibition at 5000 µg/mL [1, 11]: 57.1%
- effect on β-glucocerebrosidase activity, in words [1]: inhibited the enzyme

SMILES: O[C@@H]1[C@@H](O)[C@H](O)[C@]2(O)CC[C@H]1N2 [Calystegine B2]
- % inhibition α-D-glucosidase rat intestine [4]: 22%
- % inhibition β-D-galactosidase bovine liver [5]: 44%
- % inhibition α-D-galactosidase Green coffee [6]: 99%
- % inhibition N-acetyl-β-D gluc Bovine kidney [7]: 0%
- % inhibition α-D-glucosidase Yeast (α-D-glucosidase Yeast; 0.8 mM): 18%
- % inhibition β-D-glucosidase almond (β-D-glucosidase almond; 0.8 mM): 96%
- % inhibition α-D-glucosidase Bacillus (α-D-glucosidase Bacillus): −5%
- % inhibition α-D-mannosidase Jack bean [8]: 8%
- % inhibition N-acetyl-β-D-gluc Jack bean [9]: 0%
- % inhibition glucocerebrosidase (GC) Genzyme [1, 11]: 100%
- % inhibition β-D-mannosidase C. fimi (β-D-mannosidase C. fimi): −5%

SMILES: O=c1cc[nH]c(=O)[nH]1 [uracil]
- inhibition at 5000 µg/mL [1, 11]: 4.5%

SMILES: O=c1c(O)c(-c2ccc(O)c(O)c2)oc2cc(O)cc(O)c12 [quercetin]
- inhibition at 5000 µg/mL [1, 11]: 39.4%
- effect on β-glucocerebrosidase activity, in words [1]: inhibited the enzyme

SMILES: NC(=O)c1cccnc1 [nicotinamide]
- inhibition at 5000 µg/mL [1, 11]: -11.3%

SMILES: Nc1ncnc2nc[nH]c12 [adenine]
- inhibition at 10000 µg/mL [1, 11]: -22%
- effect on β-glucocerebrosidase activity, in words [1]: some promotion activity but weaker than that seen with the yogurts

SMILES: O=C(O)c1ccc(=O)[nH]c1 [6-OH-nicotinic acid]
- % inhibition Cerezyme (β-glucocerebrosidase) [1, 11]: −1.4%

SMILES: Cn1cc(C(=O)O)ccc1=O [6-OH-trigonelline]
- % inhibition Cerezyme (β-glucocerebrosidase) [1, 11]: 8.6%

SMILES: C[n+]1cccc(C(=O)[O-])c1 [trigonelline]
- inhibition at 1000 µg/mL ([1]; Conc 1 mg/ml, pH 5.9, negative value = activation): 3.1%
- inhibition at 5000 µg/mL [1, 11]: -12.6%

SMILES: C[N+](C)(C)CC(=O)O [betaine]
- inhibition at 10000 µg/mL [1, 11]: 0.1%

SMILES: OC[C@H]1N[C@H](CO)[C@@H](O)[C@@H]1O [DMDP]
- % inhibition α-D-glucosidase rat intestine [4]: 77%
- % inhibition β-D-galactosidase bovine liver [5]: 99%
- % inhibition α-D-galactosidase Green coffee [6]: 7%
- % inhibition N-acetyl-β-D gluc Bovine kidney [7]: −7%
- % inhibition α-D-glucosidase Yeast (α-D-glucosidase Yeast; 0.8 mM): 100%
- % inhibition β-D-glucosidase almond (β-D-glucosidase almond; 0.8 mM): 97%
- % inhibition α-D-glucosidase Bacillus (α-D-glucosidase Bacillus): 93%
- % inhibition α-D-mannosidase Jack bean [8]: 3%
- % inhibition N-acetyl-β-D-gluc Jack bean [9]: −7%
- % inhibition glucocerebrosidase (GC) Genzyme [1, 11]: 44%
- % inhibition β-D-mannosidase C. fimi (β-D-mannosidase C. fimi): 93%

SMILES: Nc1cc[nH]c(=O)n1 [cytosine]
- inhibition at 10000 µg/mL [1, 11]: -1.6%

SMILES: CN1C(=N)NC[C@H]1C(=O)O [Compound 1, (S)-2-imino-3-methylimidazolidine-4-carboxylic acid]
- % inhibition N-acetyl-β-D-gluc Bovine kidney ([7]; 8 mM): 34%
- % inhibition α-D-glucosidase Yeast (α-D-glucosidase Yeast; 8 mM): 44%
- % inhibition β-D-glucosidase almond (β-D-glucosidase almond; 8 mM): 20%
- effect on β-glucocerebrosidase activity, in words [1]: strong promotion equalling that of the yogurt purified compound
- effect on β-glucocerebrosidase activity, in words ([1]; listed as (S)-2-imino-3-methylimidazolidine-4-carboxylic acid): effective at promoting the enzyme activity in vitro

SMILES: OC[C@H]1CNC[C@@H](O)[C@@H]1O [isofagomine]
- GCase activity (GCase [10]): increase GCase activity in vitro and in mice
